Assay results as given in patent US6451618B2, “Test for detecting substances which alter the conformational structure of zinc fingers” (priority 1997, dated 2002).
Where two headings read alike, the source gives them in different places.

Legend:
TFIIIA [1] = target: T1, TFIIIA (Xenopus laevis, UniProt P03001); format: binding; parameters: Immature ovarian tissue was dissected from 4-5 cm female X. laevis frogs; from tissue; host or cells: immature ovarian tissue (oocytes) of Xenopus laevis; 7S particles, 5S RNA removed with RNase A; conditions: for concentration giving complete inhibition of TFIIIA binding: complete loss of DNase I protection and hypersensitivity; for TFIIIA zinc finger affected by xenobiotic: general statement; for concentration at which TFIIIA binding to the 5S RNA gene is inhibited: loss of DNase I protection, nucleotides +43 to +96, TFIIIA preincubated with metal; for reversibility of inhibition of TFIIIA binding: not overcome by added zinc ions; for inhibition of TFIIIA-5S RNA gene interaction: 10 μM, data not shown
Description: Inhibition of TFIIIA binding to the 5S ribosomal RNA gene was assayed by the DNase I protection method. In this assay, TFIIIA isolated from frogs, or as a recombinant protein, was incubated for a short period of time with a radioactively labeled double-stranded DNA fragment containing the 5S ribosomal RNA gene sequence (120 base-pairs in length). In TFIIIA's role in regulating ribosome synthesis, the protein birds specifically and tightly to this 5S gene sequence. When this occurs, the bound protein protects a large region of the 5S RNA gene from DNase I digestion. DNase I normally degrades the 5S gene and in the process generates a series of differently sized DNA fragments which can be resolved by electrophoresis. TFIIIA binding protects a DNA region comprising approximately 53 base pairs from DNase I degradation.
Cadmium and aluminum inhibition of TFIIIA binding was ascertained by observing the loss of this protected region from 5S gene nucleotides (+43 to +96).
The end-labeled fragment was ethanol precipitated, redigested with BamHI and the smaller fragment was purified by PAGE. Specific activity of the fragment was determined by absorbance at 260 nm and Cerenkov counting. To examine the effects of various metals on the TFIIIA-5S RNA gene interaction TFIIIA (10 nM) was incubated with the various metals (chloride salts of all metals were ultrapure grade and purchased from Aldrich; concentrations are indicated in the figure legends) in 20 mM Tris-HCl, pH 7.6, 70 mM NH4Cl, 7 mM MgCl2, 0.4 mM DTT and 0.1% NP-40 for 10 min prior to addition of the DNA fragment containing the end-labeled 5S RNA gene (1 nM). After addition of DNA the reaction (20 μl ) was incubated at room temperature for an additional 15 min. The reactions were then incubated for an additional 1 min in DNase I (2 μg/ml final concentration) and digestion was terminated by addition of 100 μl stop buffer (20 mM Tris-HCl, pH 7.6, 1 mM EDTA, 0.1% SDS, 30 μg/ml sonicated salmon sperm DNA). […] Gel autoradiography was performed overnight at −70° C. with Kodak XAR-5 film and a Dupont Cronex intensifying screen.
Target sequence in this assay (P03001 23-366): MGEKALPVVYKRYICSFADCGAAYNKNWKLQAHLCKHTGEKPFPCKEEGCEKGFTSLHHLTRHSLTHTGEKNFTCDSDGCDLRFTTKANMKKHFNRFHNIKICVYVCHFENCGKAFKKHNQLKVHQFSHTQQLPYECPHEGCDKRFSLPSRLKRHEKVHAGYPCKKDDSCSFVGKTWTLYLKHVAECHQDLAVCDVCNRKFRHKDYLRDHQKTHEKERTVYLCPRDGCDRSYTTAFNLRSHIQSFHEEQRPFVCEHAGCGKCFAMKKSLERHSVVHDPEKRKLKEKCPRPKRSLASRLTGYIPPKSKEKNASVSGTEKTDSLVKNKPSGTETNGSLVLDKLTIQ

TFIIIA [2] = target: T1, TFIIIA; assay: TFIIIA-dependent DNA renaturation assay; format: biochemical; parameters: Immature ovarian tissue was dissected from 4-5 cm female X. laevis frogs; from tissue; host or cells: immature ovarian tissue (oocytes) of Xenopus laevis; 7S particles, 5S RNA removed with RNase A
Target sequence in this assay (P03001 23-366): as above
Description: DNA migration in the Tris-phosphate agarose gel electrophoresis system used in the DNA renaturation assay is sensitive to some types of DNA structural changes. This assay is useful in this study because it can detect structural changes in the nanomolar DNA concentration range.
DNA renaturation (hybridization of complementary single-stranded DNA) was assayed by binding 20 nM Xenopus TFIIIA to 2 nM heat-denatured ^32P labeled 5S gene DNA for 15 min. Reactions are terminated by detergent and electrophoresed on an agarose gel which resolves the slower migrating single-stranded DNA (s.s.) from the faster migrating double-stranded DNA (d.s.) DNA bands are visualized by autoradiography. […] DNA migration in the absence and presence of cadmium.
TFIIIA isolation, ^32P-end-labeling of the 5S RNA gene, denaturation and renaturation reactions, Tris-phosphate agarose gel electrophoresis and autoradiography were performed as described above in the methodology section herein. […]

estrogen receptor (ER) [3] = conditions: hormone-bound estrogen receptor; cited from earlier work
estrogen receptor (ER) [4] = conditions: cited from earlier work
TFIIIA [5] = target: T1, TFIIIA; conditions: excitation 360 nanometers
Description: Zinc is then removed from TFIIIA (- ZINC sample) by incubation with the zinc chelator, ethylenediamine tetraacetic acid (EDTA). Relative emission fluorescent intensity spectra of the TFIIIA-bound AEDANS probe are recorded using an excitation wavelength of 360 nanometers.
Target sequence in this assay (P03001 23-366 limits assumed): as the sequence (P03001 23-366) above

[Cl][Al]([Cl])[Cl] [Al^3+, AlCl3]
inhibitory concentration relative to that for Cd2+ (TFIIIA [1]; Al3+ versus Cd2+): about 50 fold
concentration giving slight inhibition of TFIIIA binding (TFIIIA [1]; FIG. lane 3): 1 µM
concentration giving complete inhibition of TFIIIA binding (TFIIIA [1]): 5 to 7 µM
TFIIIA zinc finger affected by xenobiotic (TFIIIA [1]): affected
concentration at which TFIIIA binding to the 5S RNA gene is inhibited (TFIIIA [1]): 3 µM
reversibility of inhibition of TFIIIA binding (TFIIIA [1]): irreversible
inhibition of TFIIIA-dependent DNA renaturation (TFIIIA [2]; TFIIIA preincubated with 50 μM AlCl3 (panel B)): Inhibition of TFIIIA-dependent renaturation

[AsH3] [Arsenic, NaH2AsO4]
inhibition of TFIIIA zinc finger binding to DNA (TFIIIA [1]; preincubated with 0.1, 0.5 or 1.0 mM NaH2AsO4): does not inhibit

[Cl][Cd][Cl] [Cd^2+, CdCl2]
concentration inhibiting DNA binding by activated receptors (estrogen receptor (ER) [3]): 1 mM
concentration inhibiting initial binding of hormone to receptor (estrogen receptor (ER) [4]): 0.1 mM
in vitro inhibitory concentration relative to serum concentration in moderate to heavy smokers (TFIIIA [1]; 0.1 μM Cd2+ for TFIIIA): approximately 5 fold
inhibitory molecules of metal ion per TFIIIA molecule (TFIIIA [1]; at 0.1 μM Cd2+): < 10 molecules per TFIIIA molecule
concentration giving complete inhibition of TFIIIA binding (TFIIIA [1]): 0.25 µM
TFIIIA zinc finger affected by xenobiotic (TFIIIA [1]): affected
concentration at which TFIIIA binding to the 5S RNA gene is inhibited (TFIIIA [1]): 0.1 µM
reversibility of inhibition of TFIIIA binding (TFIIIA [1]): irreversible
inhibition of TFIIIA-dependent DNA renaturation (TFIIIA [2]; TFIIIA 10, 20 or 30 nM preincubated with 1 μM CdCl2): inhibition of DNA renaturation

[Cl-].[Cs+] [Cs^2+]
inhibition of TFIIIA-5S RNA gene interaction (TFIIIA [1]): non-inhibitory
TFIIIA zinc finger affected by xenobiotic (TFIIIA [1]): not

O=C(O)CN(CCN(CC(=O)O)CC(=O)O)CC(=O)O [EDTA, ethylenediamine tetraacetic acid]
emission wavelength after zinc removal (TFIIIA [5]; blue shift from 485 nanometers): 478 nanometers
increase of emission fluorescence intensity (TFIIIA [5]; zinc removed from TFIIIA by EDTA): 25%

[Cl-].[Cl-].[Mg+2] [Mg^2+]
inhibition of TFIIIA-5S RNA gene interaction (TFIIIA [1]): non-inhibitory

[Cl][Mn][Cl] [Mn^2+]
inhibition of TFIIIA-5S RNA gene interaction (TFIIIA [1]): non-inhibitory
TFIIIA zinc finger affected by xenobiotic (TFIIIA [1]): not

O=[Se]([O-])[O-].[Na+].[Na+] [Na2SeO3]
TFIIIA zinc finger affected by xenobiotic (TFIIIA [1]): affected
concentration at which TFIIIA binding to the 5S RNA gene is inhibited (TFIIIA [1]): ≥ 25 µM

[Cl][Pb][Cl] [PbCl2]
TFIIIA zinc finger affected by xenobiotic (TFIIIA [1]): affected
concentration at which TFIIIA binding to the 5S RNA gene is inhibited (TFIIIA [1]): ≥ 10 µM

HgCl2 [Mercury]
TFIIIA zinc finger affected by xenobiotic (TFIIIA [1]): not
inhibition of TFIIIA zinc finger binding to DNA (TFIIIA [1]; preincubated in 5, 10, 15, 20 μM HgCl2): does not inhibit
